In US20240285553A1, “METHODS TO MODULATE MITOPHAGY WITH SREBP SIGNALING PATHWAY ACTIVATORS” (THE TRUSTEES OF INDIANA UNIVERSITY, priority 2021, published 2024):
“Also recorded” adds a separate entry of the source.

Key:
[1] = tested on: pulmonary arterial endothelial cells (PAECs); experiment: Western blot of mitochondrial marker TOM20 as measure of mitophagy; type: cell-based, human; conditions: for Tom20 levels (mitophagy): ECs / PAEC
Description: (§1) Western blot. Cell lysates were resolved on a SDS PAGE pre-cast gel (Invitrogen) and resolved proteins were transferred on to a PVDF membrane for further detection of proteins using specific antibodies. Antibodies for SREBP1 were purchased from Santa Cruz Biotechnology (Cat #sc-365513) and Novus biological (Cat #NB100-2215). SCD antibody was purchased from Santa Cruz Biotechnology (Cat #sc-58420). Tom20 and LAMP1 antibodies were purchased from Cell Signaling (Cat #42406S and 15665S, respectively).
(§2) First, degradation of a mitochondrial marker (TOM20) was evaluated as a bio-chemical marker of mitophagy induction.

PAEC / ECs = experiment: Immunofluorescence microscopy of Tom20 and lysosomal marker LAMP1 (mitophagy); type: cell-based, human; conditions: for mitophagy by immunofluorescence (Tom20/Lamp1): ECs
Description: Immunofluorescence Microscopy. Cells were fixed with 4% Formaldehyde (Electron Microscopy Sciences, #C993M24) and permeabilized in the presence of 0.1% Triton X-100 (Sigma). Full-length SREBP1 was stained using mouse monoclonal antibody from Santa Cruz Biotechnology (Cat #sc-365513). Whereas nuclear SREBP1 was detected using antibody from Novus biological (Cat #NB100-2215). […] Tom20 and LAMP1 antibodies were purchased from Cell Signaling (Cat #42406S and 15665S, respectively). Images were captured on an inverted fluorescent microscope (Leica).
as §2
Fixed cells were stained with Tom20 and Lamp1 and the fluorescence images were captured on a fluorescence microscope.

ECs = experiment: Transmission electron microscopy for mitophagy; type: cell-based, human; conditions: 10 uM propranolol, 10 uM R-propranolol or 0.1 uM JW480 for 12 hours
Method: Transmission Electron Microscopy. […] Thin sections from these fixed cell blocks were visualized on Tecnai Spirit (ThermoFisher) TEM Microscope. Images captured were analyzed.
TEM evidence. […] ECs exposed to these drugs were fixed and the images were captured on a TEM.

MCT-induced PAH in rats = experiment: Rat MCT (monocrotaline) model of PAH; type: in vivo
Method: Rat MCT model of PAH. SD rats were given one dose of MCT injection to induce pulmonary hypertension. […] Rats were anesthetized and RVSP recorded.
Rats were injected with MCT to develop PAH in a well-established 4 week rodent model of the disease.

SREBP1 pathway = experiment: RNA sequencing and pathway analysis of propranolol-treated ECs; type: cell-based, human; conditions: ECs treated with propranolol
Description: SREBP1 is a key transcription factor that promotes lipid synthesis upon activation. Normally, SREBP1 protein is retained in the endoplasmic reticulum by high levels of cholesterol. When the cholesterol levels drop, SREBP1 protein gets translocated to the Golgi where it is cleaved, and the transcriptional activation portion of this protein gets translocated to the nucleus. Subsequently, SREBP1 activates a transcription program of genes involved in lipid synthesis. RNAseq data was generated to study mechanisms of propranolol-mediated PAEC mitophagy induction. […] ECs were treated with propranolol and the total RNA isolated from the cells were subjected to high through-put RNA sequencing.

SREBP1 [2] = experiment: Western blot of SREBP1, SCD and NCEH1 (SREBP1 activation); type: cell-based, human; conditions: for SCD (SREBP1 target) levels / SREBP1 levels (non-cleaved; decrease indicates cleavage and activation): ECs / PAEC; for SCD (SREBP1 target) levels / SREBP1 levels (non-cleaved; decrease indicates cleavage and activation) / NCEH1 levels: western blot
Description: as §1, with “respectively). […]” for “respectively).”

SREBP1 [3] = experiment: Immunofluorescence of SREBP1 nuclear accumulation; type: cell-based, human; conditions: ECs, IF
Description: Immunofluorescence Microscopy. Cells were fixed with 4% Formaldehyde (Electron Microscopy Sciences, #C993M24) and permeabilized in the presence of 0.1% Triton X-100 (Sigma). Full-length SREBP1 was stained using mouse monoclonal antibody from Santa Cruz Biotechnology (Cat #sc-365513). Whereas nuclear SREBP1 was detected using antibody from Novus biological (Cat #NB100-2215). Mitophagy was confirmed by staining mitochondrial Tom20 and lysosomal marker LAMP1. Tom20 and LAMP1 antibodies were purchased from Cell Signaling (Cat #42406S and 15665S, respectively). Images were captured on an inverted fluorescent microscope (Leica).
NCEH1 knockdown experiments. NCEH1 was depleted using siRNA pool from Dharmacon or Lentiviral shRNA from Sigma. NCEH1 depletion was confirmed on a Western blot or by immunofluorescence assay.
Although pharmacological inhibition of NCEH1 promoted nuclear accumulation of SREBP1, genetic evidence further supports these observations. To this end, ECs were transfected with control or siNCEH1 siRNA and localization of SREBP1 or NCEH1 was captured on IF microscope.

SREBP1-NCEH1 complex = target: T1, SREBP1-NCEH1 complex (Homo sapiens, UniProt Q6PIU2); experiment: Immunoprecipitation of endogenous SREBP1-NCEH1 complex; type: cell-based; conditions: ECs, vs vehicle
T1 construct: endogenous in cells; host or cells: cultured endothelial cells (ECs)
T1 sequence (Q6PIU2 1-408): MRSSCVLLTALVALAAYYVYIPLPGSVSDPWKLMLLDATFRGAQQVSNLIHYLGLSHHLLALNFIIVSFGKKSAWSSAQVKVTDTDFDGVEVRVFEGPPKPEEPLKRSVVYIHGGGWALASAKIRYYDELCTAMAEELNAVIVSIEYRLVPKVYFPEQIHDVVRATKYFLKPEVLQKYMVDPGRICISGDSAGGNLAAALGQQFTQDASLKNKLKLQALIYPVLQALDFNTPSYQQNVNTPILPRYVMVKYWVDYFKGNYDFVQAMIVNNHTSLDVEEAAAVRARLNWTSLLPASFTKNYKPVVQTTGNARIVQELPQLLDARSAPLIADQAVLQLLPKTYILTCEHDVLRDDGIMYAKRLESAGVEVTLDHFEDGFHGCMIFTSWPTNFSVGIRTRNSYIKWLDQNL
Method: Immunoprecipitation Assay. In determining endogenous SREBP1-NCEH1 complex formation, cultured endothelial cells were treated with IP lysis buffer (Pierce Cat #87787). SREBP1 complex was captured using SREBP1 antibody from Santa Cruz Biotechnology (Cat #sc-365513) and resolved on a SDS PAGE. Complex formation with NCEH1 was detected by blotting with NCEH1 antibodies (Sigma Cat #HPA026888). To map the domain of SREBP1 that binds to NCEH1, HA tagged full-length SREBP1 or C-terminal regulatory domain alone were co-expressed along with Flag tagged NCEH1 in HEK293 cells. SREBP proteins were captured on HA antibodies (Cell Signaling) and blotted with Flag antibodies (Sigma).

[4] = target: T2, NCEH1-phosphatidylserine interactions (Homo sapiens, UniProt Q6PIU2); experiment: Dot blot membrane strip assay of NCEH1 binding to phosphatidylserine; conditions: purified NCEH1 protein on lipid membrane strip, in vitro
T2 sequence (Q6PIU2 1-408): T1 sequence (Q6PIU2 1-408)
Method: Membranes having the specified compounds were incubated with purified NCEH1 protein and the membrane was developed with NCEH1 antibody. […] ECs were treated with papuamide and cell extracts were blotted with indicated antibodies.

HF-PH mice = experiment: High-fat diet AKR/J HF-PH mouse model; type: in vivo; conditions: 4 weeks, implanted mini osmotic pump, vs vehicle
Description: FIG. 14: Using a mouse model fed a high-fat diet, AKR/J mice develop obesity, insulin resistance, heart failure with preserved ejection fraction, and pulmonary hypertension and are designated as “HF-PH mice”.
Using a mouse model fed a high-fat diet (Research Diets, New Brunswick, NJ) for 16-20 weeks, AKR/J mice (Jackson Laboratories, Bar Harbor, ME) develop obesity, insulin resistance, heart failure with preserved ejection fraction, and pulmonary hypertension. (Meng, et al., 2017; Arwood, et al., 2019).

[5] = tested on: myocardial infarction in mice; experiment: Myocardial infarction (MI) mouse model, ligation of the left coronary artery; type: in vivo
Method: Ligation of the left coronary artery is a well-accepted mouse model of myocardial infarction (MI), associated with high mortality (>70% in lwk). […] Mice were treated with vehicle or 20 mg/kg JW480 (IP, n=6 males & 6 females) for five days and subjected to an MI.

[6] = tested on: laser-induced CNV in mice; experiment: Laser-induced choroidal neovascularization (CNV) mouse model; type: in vivo; conditions: 20 mg/kg for seven days
Method: The eye offers an opportune model to study vascular pathology. The laser-induced choroidal neovascularization (CNV)) mouse model is used to study pathologic exudative angiogenesis as a major contributor to age-related macular degeneration (AMD). To test the protective effects of NCEH1 blockade, CNV was induced in two groups of mice that are exposed to either vehicle or 20 mg/kg of JW480 for seven days (n=12 each). […] Cumulatively, these mice studies provide evidence for the therapeutic use of JW480 in pathological CV conditions.

[7] = donor (non-PAH control)-derived PAEC / normal control ECs

`CC(C)NCC(O)COc1cccc2ccccc12` (racemic) [propranolol] was tested, and the “Tom20 levels (mitophagy)” value [1] was “decreased Tom20 levels; also recorded: robustly induced mitophagy; also recorded: TOM20 levels go down; also recorded: lower”, the “mitophagy induction (TOM20 level)” value ([1]; PAH patient-derived PAEC) was “reduced TOM20 levels; also recorded: consistently decreased Tom20 levels in PAH patient cells much more robustly than in normal cells” and the “mitophagy induction (TOM20 level)” value [1, 7] was “reduced TOM20 across all cells”. The “mitophagy by immunofluorescence (Tom20/Lamp1)” value (“mitophagy … (Tom20/Lamp1)” below) (PAEC / ECs) was “induce mitophagy; also recorded: Tom20 was mobilized to lysosome”, the TOM20/Lamp1 co-staining (PAEC / ECs; propranolol treated PAH patient-derived PAEC) was “reduced TOM20/Lamp1 co-staining” and the “mitophagy by TEM (bilipid membrane formation around mitochondria)” value (ECs) was “promotes bilipid membrane formation around mitochondria more frequently than vehicle treated cells; also recorded: promoted mitophagy”. For the same molecule, the “right ventricle systolic pressures (RVSP)” value (MCT-induced PAH in rats; 10 mg/kg IP for the last 2 of 4 weeks) was “significantly reduced”, the “MCT-induced arterial wall thickness” value (MCT-induced PAH in rats; 10 mg/kg IP, lung sections H&E) was “negated MCT-induced arterial wall thickness” and the “SREBP1 transcriptional targets and transcript levels (RNA-seq)” value (SREBP1 pathway) was “activated transcriptional targets, as well as transcript levels of SREBP1”. The “SCD (SREBP1 target) levels” value (SREBP1 [2]) was “increased; also recorded: elevated”, the “SREBP1 levels (non-cleaved; decrease indicates cleavage and activation)” value (SREBP1 [2]) was “SREBP1 levels go down; also recorded: reduce SREBP1 levels” and the NCEH1 levels (SREBP1 [2]; ECs) was “higher”. For the same molecule, the “effect on inhibitor effects of fatostatin” value (SREBP1 [2]; PAEC, propranolol with fatostatin, last lane of western blot) was “able to rescue inhibitor effects of fatostatin”, the “nuclear translocation of SREBP1” value (SREBP1 [3]) was “promoted nuclear translocation of SREBP1” and the “full length SREBP1 immunoprecipitated” value (SREBP1-NCEH1 complex; anti-SREBP1 antibody beads) was “less full length SREBP1 immunoprecipitated”. The “NCEH1 complexed with full length SREBP1” value (SREBP1-NCEH1 complex; blotted with NCEH1 antibody) was “reduced NCEH1 complexed with full length SREBP1”, the NCEH1-phosphatidylserine interaction [4] was “disrupts NCEH1-phosphatidylserine interactions” and the “right ventricular systolic pressure” value (HF-PH mice) was “significantly decreased”.

For papuamide, the “activation of non-canonical SREBP1 pathway” value (SREBP1 [2]; ECs, cell extracts blotted) was “activate a non-canonical SREBP1 pathway” and the “nuclear translocation of SREBP1” value (SREBP1 [3]) was “promotes nuclear translocation of SREBP1”.

`N#CC(C#N)=NNc1cccc(Cl)c1` [CCCP, carbonyl cyanide m-chlorophenylhydrazone] was tested, and the “mitophagy induction (TOM20 level)” value ([1]; PAH patient-derived PAEC) was “not observed; also recorded: failed to promote mitophagy” and the “mitophagy induction (TOM20 level)” value [1, 7] was “induced mitophagy; also recorded: promotes mitophagy”.

In the case of `OC(CNCC(O)C1CCc2cc(F)ccc2O1)C1CCc2cc(F)ccc2O1` (stereo not drawn) [nebivolol], the “Tom20 levels (mitophagy)” value [1] is reported as “failed to promote mitophagy”.

With `COCCc1ccc(OCC(O)CNC(C)C)cc1` (stereo not drawn) [metoprolol] the “Tom20 levels (mitophagy)” value [1] was “failed to promote mitophagy”.

For `CC(C)c1ccccc1OC(=O)NCCc1ccc2ccccc2c1` [JW480], the “Tom20 levels (mitophagy)” value [1] was “lower”, the “Tom20 levels (mitophagy)” value ([1]; listed as NCEH1) was “reduced the levels of Tom20” and the “mitophagy … (Tom20/Lamp1)” value (PAEC / ECs) was “Tom20 was mobilized to lysosome”. For the same molecule, the “mitophagy by TEM (bilipid membrane formation around mitochondria)” value (ECs) was “promoted mitophagy”, the “SCD (SREBP1 target) levels” value (SREBP1 [2]) was “elevated” and the “SREBP1 levels (non-cleaved; decrease indicates cleavage and activation)” value (SREBP1 [2]) was “reduce SREBP1 levels”. For the same molecule, the “SCD (SREBP1 target) levels” value (SREBP1 [2]; listed as NCEH1) was “sufficient to activate SREBP1 target SCD”, the NCEH1 levels (SREBP1 [2]; ECs) was “higher” and the “nuclear translocation of SREBP1” value (SREBP1 [3]) was “promoted nuclear translocation of SREBP1”. For the same molecule, the NCEH1-phosphatidylserine interaction [4] was “disrupts NCEH1-phosphatidylserine interactions”, the “intracellular lipid droplets (TEM)” value ([5]; JW480-treated mice) was “increased intracellular lipid droplets” and the “survival after MI” value ([5]; mice, 20 mg/kg IP for five days before MI) was “significantly improved survival”. The “pathologic CNV” value [6] was “inhibited pathologic CNV” and the retinal vessel leakage [6] was “significantly reduced retinal vessel leakage”.

In the case of `CCN(CC)CCO[C@H]1CC[C@@]2(C)C(=CC[C@@H]3[C@@H]2CC[C@]2(C)C(=O)CC[C@@H]32)C1.Cl` [U18666A], the “mitophagy … (Tom20/Lamp1)” value (PAEC / ECs) is reported as “induce mitophagy”.
